Data from the NIST ThermoML archive (doi:10.1016/j.fluid.2009.01.004).
Numbers after ± are expanded uncertainties.

Assay: xn = mol fraction of the nth substance listed
Conditions: 101 kPa, Liquid, Capillary tube (Ostwald / Ubbelohde) method

O [water] + CCN(CC)CC
x2 = 0
Conditions | viscosity [mPa·s]
283.15 K | 1.306 ± 0.01
286.15 K | 1.206 ± 0.0094
288.15 K | 1.144 ± 0.009
290.15 K | 1.085 ± 0.0086
291.15 K | 1.058 ± 0.0084
291.35 K | 1.053 ± 0.0083

CCN(CC)CC [triethylamine] + O
viscosity [mPa·s]
Conditions | x1 = 0.019 | x1 = 0.042 | x1 = 0.077 | x1 = 0.106 | x1 = 0.151 | x1 = 0.21 | x1 = 0.293 | x1 = 0.415 | x1 = 0.615 | x1 = 1
283.15 K | 2.52 ± 0.018 | 4.075 ± 0.029 | 5.547 ± 0.038 | 6.629 ± 0.043 | 6.651 ± 0.043 | 5.635 ± 0.038 | 4.242 ± 0.03 | 2.821 ± 0.021 | 1.84 ± 0.014 | 0.4275 ± 0.004
286.15 K | 2.211 ± 0.016 | 3.512 ± 0.025 | 4.761 ± 0.034 | 5.476 ± 0.037 | 5.497 ± 0.038 | 4.801 ± 0.034 | 3.679 ± 0.026 | 2.511 ± 0.018 | 1.531 ± 0.012 | 0.414 ± 0.0039
288.15 K | 2.033 ± 0.015 | 3.199 ± 0.023 | 4.242 ± 0.03 | 4.748 ± 0.033 | 4.769 ± 0.034 | 4.302 ± 0.03 | 3.366 ± 0.024 | 2.333 ± 0.017 | 1.354 ± 0.01 | 0.4051 ± 0.0038
290.15 K | 1.875 ± 0.014 | 2.948 ± 0.021 | 3.764 ± 0.027 | 4.07 ± 0.029 | 4.092 ± 0.029 | 3.85 ± 0.028 | 3.115 ± 0.023 | 2.175 ± 0.016 | 1.195 ± 0.0094 | 0.3961 ± 0.0038
291.15 K | 1.804 ± 0.014 | 2.846 ± 0.021 | 3.53 ± 0.025 | 3.751 ± 0.027 | 3.773 ± 0.027 | 3.644 ± 0.026 | 3.013 ± 0.022 | 2.104 ± 0.016 | 1.124 ± 0.01 | 0.3917 ± 0.0037
291.35 K | 1.792 ± 0.013 | 2.831 ± 0.021 | 3.482 ± 0.025 | 3.677 ± 0.026 | 3.699 ± 0.026 | 3.611 ± 0.026 | 2.998 ± 0.022 | 2.093 ± 0.016 | 1.113 ± 0.01 | 0.391 ± 0.0037
